# Experimental data reported in patent US11534506B2, “Methods for cell labeling and medical imaging” (priority 2015, dated 2022).
# Entries after “also recorded” stand apart in the source; their conditions may differ. Read-outs that look alike come from different tables or passages of the source.
# Experiments:
# [1] = system: C6 glioma cells; details: cited from earlier work
# [2] = system: 5T33 myeloma cells; details: cited from earlier work
# [3] = system: natural killer cells; details: cited from earlier work
# [4] = system: myeloma cells and natural killer cells; details: cited from earlier work
# [5] = system: macrophages, breast cancer cells, and myeloma cells; details: at 24 hours; cited from earlier work
# [6] = system: Leukocytes, Lymphocytes, HPCs; details: in 30 minutes; cited from earlier work
# [7] = system: lymphocytes; details: cited from earlier work
# [8] = system: hematopoietic progenitor cells (HPCs); details: in 24-96 hours; cited from earlier work
# [9] = system: mMCs, hMSCs and mDCs; test: ApoTox-Glo viability/cytotoxicity and caspase 3/7 apoptosis assay; assay type: cell-based, mouse, human; details: 2 μM for 16 hours
# Experimental: The effect of radiolabeling on cellular viability was also assessed using the ApoTox-Glo viability, cytotoxicity and caspase 3/7 apoptosis assay (Promega Corporation, Madison, Wis., USA). Unlabeled cells served as control. A known number of unlabeled and ^89Zr-labeled cells (˜10^4/well) were plated in a 96-well culture plate. The culture medium was replaced daily and maintained at 37° C. in a CO2 incubator. At day 7, cell viability, cytotoxicity and apoptosis was quantified in triplicate using the ApoTox-Glo assay. As positive controls, cells were incubated with 30 μg/mL digitonin for 30 minutes for the viability and cytotoxicity assays, while 2 μM staurosporine was added for 16 hours for the caspase 3/7 dependent apoptosis assay.
# [10] = system: B16-F10 Mouse melanoma cells (mMCs); test: Labeling of cells with ^89Zr-DBN (cell-bound radioactivity); assay type: cell-based; details: 6×10^6 cells incubated 30 minutes with ~6 MBq
# Experimental: (§1) B16-F10 Mouse melanoma cells (mMCs) from ATCC, Manassas, Va., USA, human mesenchymal stem cells (hMSCs) from patients and JAWSII mouse dendritic cells (mDCs) from ATCC, Manassas, Va., USA, were used for evaluating the ^89Zr-DBN based labeling method. The mMCs and hMSCs were cultured in complete DMEM (DMEM+10% FBS) and mDCs were cultured in complete alphaMEM (alpha MEM+4 mM L-glutamine+1 mM sodium pyruvate+5 ng/mL murine GM-CSF+20% FBS). The cultures were maintained in a humidified cell culture chamber (21% O2, 74% N2, 5% CO2) at 37° C.
# (§2) The adherent cells were trypsinized and washed once with PBS and twice with HEPES buffered GIBCO Hanks Balanced Salt solution buffered (ThermoFisher, Atlanta, Ga., USA) (H-HBSS), pH 7.5. The cell labeling reaction was performed with ˜6×10^6 cells in 500 μl H-HBSS at pH 7.5. […]. After incubation, the cells were washed 4 times with appropriate volume of complete medium. The final labeling efficiency was calculated from the radioactivity bound to cells after all the washes.
# [11] = system: JAWSII mouse dendritic cells (mDCs); test: as above; assay type: cell-based; details: 6×10^6 cells incubated 30 minutes with ~6 MBq
# Experimental: as §1, §2
# [12] = system: human mesenchymal stem cells (hMSCs); test: as above; assay type: cell-based; details: 6×10^6 cells incubated 30 minutes with ~6 MBq
# Experimental: as §1, §2
# [13] = system: mMCs, hMSCs and mDCs; test: Labeling of cells with ^89Zr(HPO4)2 and ^89Zr-DBN, labeling efficiency over all cell types; assay type: cell-based, mouse, human
# Experimental: The adherent cells were trypsinized and washed once with PBS and twice with HEPES buffered GIBCO Hanks Balanced Salt solution buffered (ThermoFisher, Atlanta, Ga., USA) (H-HBSS), pH 7.5. The cell labeling reaction was performed with ˜6×10^6 cells in 500 μl H-HBSS at pH 7.5. […] After incubation, the cells were washed 4 times with appropriate volume of complete medium. The final labeling efficiency was calculated from the radioactivity bound to cells after all the washes.
# [14] = system: mMCs, hMSCs and mDCs; test: Incorporation of ^89Zr-DBN in protein fraction (subcellular protein fractionation); assay type: cell-based, mouse, human; details: days 1, 4 and 7 after labeling; all cell types studied
# Experimental: To understand the sub-cellular localization of the label, incorporation of ^89Zr-DBN into different protein fractions in mMCs, hMSCs and mDCs was evaluated using a subcellular protein fractionation kit (Piercenet Thermo Scientific) at day 1, 4 and 7 post-labeling. The cytosolic proteins, hydrophobic membrane proteins, nuclear proteins and cytoskeletal proteins were isolated and each protein fraction was counted for radioactivity using a 2480 Wizard^2 automatic gamma counter (Perkin Elmer, Waltham, Mass., USA).
# [15] = system: scAAV1-Cre and AAV2-GFP; test: Labeling of adeno-associated viruses with ^89Zr-DBN; details: after 30 minutes of labeling
# Experimental: Post-labeling, the ^89Zr-DBN-AAVs were purified from free label and reaction mixture using size exclusion PD-10 desalting columns. The eluted virus in fractions were quantified using protein assay and radioactivity elution pattern was recorded.
# [16] = system: mMCs, hMSCs and mDCs; test: Efflux of ^89Zr-DBN from labeled cells; details: over 7 days post-labeling, medium replaced daily
# Experimental: The medium was replaced with fresh medium daily for 7 days and radioactivity in the replaced medium was counted. For mDCs with mix of adherent and suspension cells, the plate was centrifuged at 1000 rpm for 10 minutes before replacing the medium to avoid loss of unattached ^89Zr-labeled cells.
molecule,measurement,setting,value
"CNC(=S)NN=CC(C)=NNC(=S)NC.[64Cu] [^64Cu-PTSM, ^64Cu-pyruvaldehyde-bis(N4-methylthiosemicarbazone)]",extent of efflux (as high as),"[1]; C6 glioma cells, in 24-96 hours",70-80%
same,cell labeling yield,[1]; in 5 hours,70-85% cell labeling yield in
same,effluxed radioactivity,[1]; in 24 hours,cells (~80% effluxed in 24
c1cnc2c([O][89Zr]([O]c3cccc4cccnc34)([O]c3cccc4cccnc34)[O]c3cccc4cccnc34)cccc2c1 [^89Zr-oxine],viability of labeled cells,[2]; in first 24 hours,76.3±3.2%
same,"viability of labeled cells, initial",[2]; starting value before the decline,93%
same,viability of radiolabeled cells,[3]; after 6 days,20-30%
same,viability of radiolabeled cells,[3]; over the first 24 hours,60-100%
same,cell labeling yield,[4]; in 30 minutes,~32% cell labeling yield in 30
same,cell viability after labeling,[4]; possibly due to oxine exposure,Loss of cell viability possibly
same,efflux,[5],10-29%
[In+3].[O-]c1cccc2cccnc12.[O-]c1cccc2cccnc12.[O-]c1cccc2cccnc12 [^111In-oxine],cell labeling yield,[6],~80% cell labeling yield in 30
same,extent of efflux (as high as),[7]; in 24-96 hours,70-80%
same,effluxed radioactivity,[7]; in 24 hours,(~70% effluxed in 24 hours)
same,extent of efflux (as high as),[8],70-80%
CN[C@@H]1C[C@H]2O[C@@](C)([C@@H]1OC)n1c3ccccc3c3c4c(c5c6ccccc6n2c5c31)C(=O)NC4 [staurosporine],"apoptosis (caspase 3/7), positive control",[9],apoptosis was increased
^89Zr-labeled p-isothiocyanato-benzyl-desferrioxamine [^89Zr-DBN],Radioactivity concentration of labeled cells,[10],0.50±0.10 MBq/10^6 cells
same,Radioactivity concentration of labeled cells,[11],0.39±0.20 MBq/10^6 cells
same,Radioactivity concentration of labeled cells,[12],0.47±0.10 MBq/10^6 cells
same,Radioactivity concentrations of labeled cells achieved without a negative effect on cellular viability,[13],up to 0.5 MBq/1×10^6 cells
same,cell labeling efficiency,"[13]; 30 minutes labeling at 37° C., ~6×10^6 cells, ~6 MBq, cell-bound radioactivity after washes, depending on cell type",30-50%
same,^89Zr-radioactivity incorporated in hydrophobic membrane protein fraction,[14],~99%
same,viral labeling yield (radioactivity concentration),[15],~20 mCi/10^14 viral particles
same,efflux of ^89Zr-radioactivity from labeled cells,[16],negligible efflux; also recorded: no efflux of radiolabel was observed
